# Source: US20140051577A1, “SUBSTITUTED 5-(BICYCLO[4.1.0]HEPT-3-EN-2-YL)PENTA-2,4-DIENES AND 5-(BICYCLO[4.1.0]HEPT-3-EN-2-YL)PENT-2-ENE-4-INES AS ACTIVE AGENTS AGAINST ABIOTIC STRESSES IN PLANTS” (priority 2011, published 2014)
# Tested on: Brassica napus
# Test: Drought stress test on crop plants in greenhouse, spray application, efficacy vs untreated stressed control
# Assay type: in vivo
# Conditions: dosage 25 g/ha, mean of three results
# Experimental: Seeds of monocotyledonous and dicotyledonous crop plants were laid out in sandy loam in wood-fiber pots, covered with soil and cultivated in a greenhouse under good growth conditions. The test plants were treated at the early leaf stage (BBCH10-BBCH13). To ensure uniform water supply before commencement of stress, the potted plants were supplied with the maximum amount of water immediately beforehand by dam irrigation and, after application, transferred in plastic inserts in order to prevent subsequent, excessively rapid drying. The inventive compounds, formulated in the form of wettable powders (WP), wettable granules (WG), suspension concentrates (SC) or emulsion concentrates (EC), were sprayed onto the green parts of the plants as an aqueous suspension at an equivalent water application rate of 600 l/ha with addition of 0.2% wetting agent (agrotin). Substance application is followed immediately by stress treatment of the plants (cold or drought stress). […]
# After the recovery phase had ended, the intensities of damage were rated in visual comparison to untreated, unstressed controls of the same age (in the case of drought stress) or the same growth stage (in the case of cold stress). The intensity of damage was first assessed as a percentage (100%=plants have died, 0%=like control plants). […]
smiles,measurement,setting,value
"CCOC(=O)/C=C(/C)C#CC1(O)C(C)=CC(=O)C2CC21C (centres unmarked) [I.1-394, Ethyl (2Z)-5-(2-hydroxy-1,3-dimethyl-5-oxobicyclo[4.1.0]hept-3-en-2-yl)-3-methylpent-2-en-4-ynoate]","EF (BRSNS): efficacy, percentage reduction in the intensity of damage (second table headed TABLE A-1)",BRSNS as printed,>5%
same,"EF (BRSNS): efficacy, percentage reduction in the intensity of damage",Brassica napus,>5%
